In patent US20240150340A1, “CDK Inhibitors And Their Use As Pharmaceuticals” (Prelude Therapeutics Incorporated, priority 2022, published 2024):

Legend:
[1] = tested on: OVCAR3 p-RB; experiment: pRB ICW Assay in OVCAR3 Cells; type: cell-based; conditions: Homo sapiens, OVCAR-3, incubated with compound for 2 hours
How it was run: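 In-Cell Western on OVCAR3: phospho-RB antibody signal with DRAQ5 counterstain read at 700 and 800 nm after fixation. Compounds were applied for 2 h at 37° C. as 9-point ½-log dilutions in duplicate; 10 μM reference compound defined full inhibition.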

[2] = target: T1, CDK4/Cyclin D1 (Homo sapiens, UniProt P11802); experiment: CDK4/CyclinD1 Enzymatic Activity Assay (TR-FRET); type: biochemical; conditions: ATP 2 mM final, read-out: CDK4_D1 IC50
T1 construct: purchased ProQinase; host or cells: insect cell
T1 sequence (P11802 whole entry): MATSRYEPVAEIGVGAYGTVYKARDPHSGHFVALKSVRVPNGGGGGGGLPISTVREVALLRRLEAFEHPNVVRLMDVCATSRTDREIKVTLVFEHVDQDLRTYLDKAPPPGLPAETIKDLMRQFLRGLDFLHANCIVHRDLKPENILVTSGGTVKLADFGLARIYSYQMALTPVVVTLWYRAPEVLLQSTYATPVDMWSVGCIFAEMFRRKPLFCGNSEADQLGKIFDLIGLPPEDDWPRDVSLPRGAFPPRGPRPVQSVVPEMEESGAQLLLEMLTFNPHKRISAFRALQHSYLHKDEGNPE
T1 sequence (P24385 whole entry partner): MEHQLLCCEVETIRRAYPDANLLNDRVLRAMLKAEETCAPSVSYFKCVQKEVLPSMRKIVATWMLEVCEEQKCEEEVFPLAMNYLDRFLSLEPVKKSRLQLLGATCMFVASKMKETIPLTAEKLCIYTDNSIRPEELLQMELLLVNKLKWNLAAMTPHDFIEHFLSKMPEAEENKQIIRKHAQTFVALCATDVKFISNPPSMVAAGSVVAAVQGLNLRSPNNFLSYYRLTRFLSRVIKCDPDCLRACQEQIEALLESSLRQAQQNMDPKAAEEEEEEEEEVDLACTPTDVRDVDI
How it was run: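 Insect-cell-expressed CDK4/Cyclin D1 (1 nM) with ULight-4E-BP1 (100 nM) and 2 mM ATP in HEPES pH 7.4; 9-dose 3-fold compound series preincubated 20 min, reaction started with 10 mM MgCl2, 45 min at 37° C. Europium anti-P-4E-BP1 TR-FRET read; IC50 from 4-parameter Hill fit.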

[3] = target: T2, CDK2/Cyclin E2 (Homo sapiens, UniProt P24941); experiment: CDK2/CyclinE2 Enzymatic Activity Assay (TR-FRET); type: biochemical; conditions: ATP 1 mM final, read-out: CDK2_E1 IC50
T2 construct: Recombinant protein complex CDK2/Cyclin E2, expressed from insect cell, was purchased from ProQinase
How it was run: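 Recombinant insect-cell CDK2/Cyclin E2 (1 nM) phosphorylated ULight-4E-BP1 (50 nM) with 1 mM ATP in HEPES pH 7.4 buffer, after 20 min compound preincubation; MgCl2 (10 mM) started the 45 min reaction at 37° C. Europium anti-phospho-4E-BP1 TR-FRET read; 9-dose IC50 by 4-parameter fit.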

Row | SMILES | IC50 [1] | IC50 [2] | IC50 [3]
1 | Cc1cc(-c2nc(NC3CCN(S(=O)(=O)c4cnn(C)c4)CC3)ncc2C(F)(F)F)sn1 [Example 77, N-(1-((1-methyl-1H-pyrazol-4-yl)sulfonyl)piperidin-4-yl)-4-(3-methylisothiazol-5-yl)-5-(trifluoromethyl)pyrimidin-2-amine] | > 500 nM | > 500 nM | ≤ 100 nM
2 | Cc1cc(-c2nc(NC3CCN(S(C)(=O)=O)CC3)ncc2C(F)(F)F)sn1 [Example 78, 4-(3-methylisothiazol-5-yl)-N-(1-(methylsulfonyl)piperidin-4-yl)-5-(trifluoromethyl)pyrimidin-2-amine] | > 500 nM | > 500 nM | 100 to 500 nM
3 | Cc1sc(-c2nc(NC3CCN(S(=O)(=O)c4cnn(C)c4)CC3)ncc2C(F)(F)F)cc1C(F)F [Example 79, 4-(4-(difluoromethyl)-5-methylthiophen-2-yl)-N-(1-((1-methyl-1H-pyrazol-4-yl)sulfonyl)piperidin-4-yl)-5-(trifluoromethyl)pyrimidin-2-amine] | 100 to 500 nM | ≤ 100 nM | ≤ 100 nM
4 | Cc1sc(-c2nc(NC3CCN(S(C)(=O)=O)CC3)ncc2C(F)(F)F)cc1C(F)F [Example 80, 4-(4-(difluoromethyl)-5-methylthiophen-2-yl)-N-(1-(methylsulfonyl)piperidin-4-yl)-5-(trifluoromethyl)pyrimidin-2-amine] | 100 to 500 nM | ≤ 100 nM | ≤ 100 nM
5 | CC(=O)c1cc(-c2nc(NC3CCN(S(=O)(=O)c4cnn(C)c4)CC3)ncc2C(F)(F)F)sc1C [Example 81, 1-(2-methyl-5-(2-((1-((1-methyl-1H-pyrazol-4-yl)sulfonyl)piperidin-4-yl)amino)-5-(trifluoromethyl)pyrimidin-4-yl)thiophen-3-yl)ethan-1-one] | ≤ 100 nM | ≤ 100 nM | ≤ 100 nM
6 | COCc1cc(-c2nc(NC3CCN(S(=O)(=O)c4cnn(C)c4)CC3)ncc2C(F)(F)F)sc1C [Example 82, 4-(4-(methoxymethyl)-5-methylthiophen-2-yl)-N-(1-((1-methyl-1H-pyrazol-4-yl)sulfonyl)piperidin-4-yl)-5-(trifluoromethyl)pyrimidin-2-amine] | > 500 nM | 100 to 500 nM | ≤ 100 nM
7 | Cc1sc(-c2nc(NC3CCN(S(C)(=O)=O)CC3)ncc2C(F)(F)F)cc1C#N [Example 83, 2-methyl-5-(2-((1-(methylsulfonyl)piperidin-4-yl)amino)-5-(trifluoromethyl)pyrimidin-4-yl)thiophene-3-carbonitrile] | 100 to 500 nM | ≤ 100 nM | ≤ 100 nM
8 | CS(=O)(=O)N1CCC(Nc2ncc(C(F)(F)F)c(-c3cc(C(N)=O)ns3)n2)CC1 [Example 84, 5-(2-((1-(methylsulfonyl)piperidin-4-yl)amino)-5-(trifluoromethyl)pyrimidin-4-yl)isothiazole-3-carboxamide] | ≤ 100 nM | ≤ 100 nM | ≤ 100 nM
9 | Cc1sc(-c2nc(N[C@H]3CCN(S(=O)(=O)c4cnn(C)c4)C[C@H]3C)ncc2C(F)(F)F)cc1C#N [Example 85, 2-methyl-5-(2-(((3R,4S)-3-methyl-1-((1-methyl-1H-pyrazol-4-yl)sulfonyl)piperidin-4-yl)amino)-5-(trifluoromethyl)pyrimidin-4-yl)thiophene-3-carbonitrile] | 100 to 500 nM | 100 to 500 nM | ≤ 100 nM
10 | Cc1sc(-c2nc(N[C@H]3CCN(S(=O)(=O)c4c[nH]cn4)C[C@H]3C)ncc2C(F)(F)F)cc1C#N [Example 86, 5-(2-(((3R,4S)-1-((1H-imidazol-4-yl)sulfonyl)-3-methylpiperidin-4-yl)amino)-5-(trifluoromethyl)pyrimidin-4-yl)-2-methylthiophene-3-carbonitrile] | > 500 nM | > 500 nM | ≤ 100 nM
11 | C[C@@H]1CN(S(=O)(=O)c2cnn(CC#N)c2)CC[C@@H]1Nc1ncc(C(F)(F)F)c(-c2cc(C(N)=O)cs2)n1 [Example 87, 5-(2-(((3R,4S)-1-((1-(Cyanomethyl)-1H-pyrazol-4-yl)sulfonyl)-3-methylpiperidin-4-yl)amino)-5-(trifluoromethyl)pyrimidin-4-yl)thiophene-3-carboxamide] | ≤ 100 nM | ≤ 100 nM | ≤ 100 nM
12 | Cc1sc(-c2nc(NC3CCN(S(=O)(=O)c4cnn(CC#N)c4)CC3)ncc2C(F)(F)F)cc1C#N [Example 88, 5-(2-((1-((1-(cyanomethyl)-1H-pyrazol-4-yl)sulfonyl)piperidin-4-yl)amino)-5-(trifluoromethyl)pyrimidin-4-yl)-2-methylthiophene-3-carbonitrile] | ≤ 100 nM | ≤ 100 nM | ≤ 100 nM
13 | CC(O)c1cnc(-c2nc(NC3CCN(S(=O)(=O)c4cnn(C)c4)CC3)ncc2C(F)(F)F)s1 (stereo not drawn) [Example 89, 1-(2-(2-((1-((1-Methyl-1H-pyrazol-4-yl)sulfonyl)piperidin-4-yl)amino)-5-(trifluoromethyl)pyrimidin-4-yl)thiazol-5-yl)ethan-1-ol] | ≤ 100 nM | ≤ 100 nM | ≤ 100 nM
14 | CC(O)c1sc(-c2nc(NC3CCN(S(=O)(=O)c4cnn(C)c4)CC3)ncc2C(F)(F)F)cc1C#N (stereo not drawn) [Example 90, 2-(1-Hydroxyethyl)-5-(2-((1-((1-methyl-1H-pyrazol-4-yl)sulfonyl)piperidin-4-yl)amino)-5-(trifluoromethyl)pyrimidin-4-yl)thiophene-3-carbonitrile] | ≤ 100 nM | ≤ 100 nM | ≤ 100 nM
15 | Cn1cc(S(=O)(=O)N2CCC(Nc3ncc(C(F)(F)F)c(-c4cc(C#N)ns4)n3)CC2)cn1 [Example 91, 5-(2-((1-((1-methyl-1H-pyrazol-4-yl)sulfonyl)piperidin-4-yl)amino)-5-(trifluoromethyl)pyrimidin-4-yl)isothiazole-3-carbonitrile] | 100 to 500 nM | 100 to 500 nM | ≤ 100 nM
16 | Cn1cnc(S(=O)(=O)N2CCC(Nc3ncc(C(F)(F)F)c(-c4nc(C(N)=O)cs4)n3)CC2)c1 [Example 92, 2-(2-((1-((1-Methyl-1H-imidazol-4-yl)sulfonyl)piperidin-4-yl)amino)-5-(trifluoromethyl)pyrimidin-4-yl)thiazole-4-carboxamide] | > 500 nM | > 500 nM | > 500 nM
17 | Cc1sc(-c2nc(NC3CCN(S(=O)(=O)c4cnc(N)s4)CC3)ncc2C(F)(F)F)cc1C#N [Example 93, 5-(2-((1-((2-Aminothiazol-5-yl)sulfonyl)piperidin-4-yl)amino)-5-(trifluoromethyl)pyrimidin-4-yl)-2-methylthiophene-3-carbonitrile] | 100 to 500 nM | 100 to 500 nM | ≤ 100 nM
18 | Cc1sc(-c2nc(N[C@H]3CCN(S(=O)(=O)c4cnc(N)s4)C[C@H]3C)ncc2C(F)(F)F)cc1C#N [Example 94, 5-(2-(((3R,4S)-1-((2-aminothiazol-5-yl)sulfonyl)-3-methylpiperidin-4-yl)amino)-5-(trifluoromethyl)pyrimidin-4-yl)-2-methylthiophene-3-carbonitrile] | 100 to 500 nM | > 500 nM | ≤ 100 nM
19 | C[C@@H]1CN(S(=O)(=O)c2cnn(C)c2)CC[C@@H]1Nc1ncc(C(F)(F)F)c(-c2ncc(C(C)(C)O)s2)n1 [Example 100, 2-(2-(2-(((3R,4S)-3-methyl-1-((1-methyl-1H-pyrazol-4-yl)sulfonyl)piperidin-4-yl)amino)-5-(trifluoromethyl)pyrimidin-4-yl)thiazol-5-yl)propan-2-ol] | ≤ 100 nM | ≤ 100 nM | ≤ 100 nM
20 | CC(O)(c1cnc(-c2nc(NC3CCN(S(C)(=O)=O)CC3)ncc2C(F)(F)F)s1)C(F)(F)F (stereo not drawn) [Example 103, 1,1,1-trifluoro-2-(2-(2-((1-(methylsulfonyl)piperidin-4-yl)amino)-5-(trifluoromethyl)pyrimidin-4-yl)thiazol-5-yl)propan-2-ol] | ≤ 100 nM | ≤ 100 nM | ≤ 100 nM
21 | C[C@@H]1CN(S(=O)(=O)c2cn(C)cn2)CC[C@@H]1Nc1ncc(C(F)(F)F)c(-c2ncc(C(C)(O)C(F)F)s2)n1 (stereo partly drawn) [Example 104, 1,1-difluoro-2-(2-(2-(((3R,4S)-3-methyl-1-((1-methyl-1H-imidazol-4-yl)sulfonyl)piperidin-4-yl)amino)-5-(trifluoromethyl)pyrimidin-4-yl)thiazol-5-yl)propan-2-ol] | ≤ 100 nM | ≤ 100 nM | ≤ 100 nM
22 | CC(C)(O)Cc1cnc(-c2nc(NC3CCN(S(C)(=O)=O)CC3)ncc2C(F)(F)F)s1 [Example 107, 2-Methyl-1-(2-(2-((1-(methylsulfonyl)piperidin-4-yl)amino)-5-(trifluoromethyl)pyrimidin-4-yl)thiazol-5-yl)propan-2-ol] | ≤ 100 nM | ≤ 100 nM | ≤ 100 nM
23 | CC(C)(O)Cc1cnc(-c2nc(N[C@H]3CCN(S(C)(=O)=O)C[C@H]3F)ncc2C(F)(F)F)s1 [Example 108, 1-(2-(2-(((3R,4S)-3-fluoro-1-(methylsulfonyl)piperidin-4-yl)amino)-5-(trifluoromethyl)pyrimidin-4-yl)thiazol-5-yl)-2-methylpropan-2-ol] | 100 to 500 nM | ≤ 100 nM | ≤ 100 nM
